Results on seven compounds are retold here after PubChem BioAssay (NCI).

Test systems include UACC-257 melanoma; OVCAR-8 ovarian; CCRF-CEM leukemia; A549 NSCLC; T-47D breast; SW-620 colon; A498 renal; HL-60(TB) leukemia; BT-549 breast; NCI/ADR-RES ovarian; SK-MEL-2 melanoma.
Holding throughout (test): inhibition of tumour cell growth, NCI panel, 48 h

Each structure is given as a SMILES string. Values joined by “and” are separate entries in the source; they are usually repeats but may differ in a detail not shown here. Equal entries are not always repeated.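 Five concentrations, 48 hours, 96-well plates. At the GI50, growth is halved. The concentration for full growth arrest is given as TGI.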

Regarding `NC1CC(=O)c2cc(Br)sc21` (stereo not drawn), the TGI with UACC-257 melanoma, in the test with OVCAR-8 ovarian, in the test with CCRF-CEM leukemia, in the test on A549 NSCLC, with T-47D breast and in the test with SW-620 colon was greater than 100 µM each time. The TGI in the test on A498 renal, in the test with HL-60(TB) leukemia, with BT-549 breast, in the test with NCI/ADR-RES ovarian and with SK-MEL-2 melanoma was greater than 100 µM each time.

`CCOC(=O)n1cncc1CC(NC(=O)Cc1c(C(=O)C=C(C)C)[nH]c2ccccc12)C(=O)OC` (stereo not drawn): the TGI was 28.2 µM with UACC-257 melanoma; 40.2 µM with OVCAR-8 ovarian; 50.9 µM in the test with CCRF-CEM leukemia; 45.3 µM in the test on A549 NSCLC; 7.46 µM in the test on T-47D breast; greater than 100 µM in the test on SW-620 colon. For the same compound, the TGI in the test with A498 renal was 41.1 µM; with HL-60(TB) leukemia, 44 µM; in the test with BT-549 breast it was 37.3 µM; in the test with NCI/ADR-RES ovarian, greater than 100 µM; in the test on SK-MEL-2 melanoma it was 34.2 µM.

Regarding `CN(C)CCNc1ccc2c(=O)n(CCN(C)C)c(=O)n3c4ccc(N)cc4c(=O)c1c23`, the TGI in the test with UACC-257 melanoma came to 2.51 µM; in the test on OVCAR-8 ovarian, 0.722 µM; in the test on CCRF-CEM leukemia it was 0.16 µM; with A549 NSCLC, 0.599 µM; in the test on T-47D breast, 4.64 µM; in the test on SW-620 colon, 0.637 µM. In addition, the TGI with A498 renal amounted to 2.37 µM; with HL-60(TB) leukemia, 0.278 µM; in the test on BT-549 breast, 1.87 µM; in the test on NCI/ADR-RES ovarian it was 2.28 µM; in the test with SK-MEL-2 melanoma, 0.496 µM.

As for `Cn1c2nc3ccccc3c-2cc2ccccc21`, the GI50 with UACC-257 melanoma is 3.91 µM and 8.6 µM; in the test with OVCAR-8 ovarian, 2.48 µM and 7.18 µM; with A549 NSCLC, 3.38 µM and 7.11 µM; in the test on A498 renal, 5.12 µM and 18.4 µM; in the test on NCI/ADR-RES ovarian it was 2.76 µM and 12.1 µM; in the test with SK-MEL-2 melanoma, 3.94 µM and 11.1 µM. The TGI in the test on UACC-257 melanoma is 35.5 µM and 44 µM; in the test with OVCAR-8 ovarian, 13.6 µM and > 100 µM; with CCRF-CEM leukemia, > 43.5 µM and 25 µM; with A549 NSCLC, 33.2 µM and 88.7 µM; in the test on T-47D breast it was greater than 100 µM; in the test with SW-620 colon, > 48.7 µM and 39 µM. Moreover, the TGI in the test with A498 renal was 17.1 µM and 43.5 µM; in the test with HL-60(TB) leukemia, 8.22 µM and 17 µM; in the test on BT-549 breast, 9.09 µM; with NCI/ADR-RES ovarian, 20.2 µM and > 100 µM; in the test on SK-MEL-2 melanoma it was 17.2 µM and 24 µM.

For `COC(=N)C12C(N)=NC(OC)(OC)C1(C#N)C21C(=O)N(c2ccccc2)N=C1C` (stereo not drawn), the TGI in the test with UACC-257 melanoma, in the test on OVCAR-8 ovarian, in the test on CCRF-CEM leukemia, with A549 NSCLC, with T-47D breast and with SW-620 colon was greater than 100 µM throughout. Moreover, the TGI with A498 renal, with HL-60(TB) leukemia, in the test with BT-549 breast, in the test on NCI/ADR-RES ovarian and with SK-MEL-2 melanoma was greater than 100 µM each time.

For the compound `O=C(Nc1nc(C23CC4CC(CC(C4)C2)C3)cs1)c1cc2cc(Br)cc(Br)c2oc1=O`, the TGI in the test on UACC-257 melanoma, in the test with OVCAR-8 ovarian, in the test on CCRF-CEM leukemia, in the test on A549 NSCLC, in the test with T-47D breast and in the test on SW-620 colon was greater than 100 µM in each case. Also, the TGI in the test with A498 renal, in the test on HL-60(TB) leukemia, in the test on BT-549 breast, in the test with NCI/ADR-RES ovarian and in the test on SK-MEL-2 melanoma was greater than 100 µM in each case.

As to `COC(=O)[C@H](Cc1ccccc1)NC(=O)N1CCN(C(=O)N[C@@H](Cc2ccccc2)C(=O)OC)CCN(C(=O)N[C@@H](Cc2ccccc2)C(=O)OC)CC1`, the TGI with UACC-257 melanoma, in the test on OVCAR-8 ovarian, in the test with CCRF-CEM leukemia, in the test with A549 NSCLC, in the test with T-47D breast and with SW-620 colon was greater than 100 µM each time. Further, the TGI in the test on A498 renal, in the test with HL-60(TB) leukemia, in the test on BT-549 breast, in the test with NCI/ADR-RES ovarian and in the test with SK-MEL-2 melanoma was greater than 100 µM each time.
